# pIC50: −log10 of the molar value. Read-outs that look alike come from different tables or passages of the source.
# Tested on: SW-480 (human colon cancer cells)
# Assay: MTT inhibition of tumor cell growth, SW-480
# Format: cell-based
# Conditions: Homo sapiens, SW480, 48 h
# In short: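 Cells seeded at 5000-10000/well in DMEM or RPMI1640 with 10% FBS, exposed 48 h at 37 °C to compound (40 μM primary screen; 5-concentration re-screen for ~50% inhibitors), triplicates. MTT added 4 h, formazan dissolved in 10% SDS overnight, A595 read; IC50 by Reed-Muench two-point method.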
compound,measurement,setting,value
"C=C1C(=O)[C@]23CC[C@H]1CC2[C@@]12CCC[C@@](C)(COC1=O)C2C[C@H]3O (stereo partly shown) [Compound 1, 15-oxospiramilactone]",pIC50,"Table 1, 7-hydroxy derivatives of S-3, read-out: IC50 SW-480",5.45
same,pIC50,"Table 2, derivatives having potential Michael reaction acceptor, read-out: IC50 SW-480",5.45
same,pIC50,"Table 3, single Michael reaction acceptor, modified lactonic ring, read-out: IC50 SW-480",5.45
same,pIC50,"Table 4, derivatives obtained by reduction of the lactonic ring, read-out: IC50 SW-480",5.45
same,pIC50,"Table 5, derivatives having double Michael reaction acceptor, read-out: IC50 SW-480",5.45
same,pIC50,"Table 6, 7-hydroxyl derivatives and controls, read-out: IC50 SW-480, 7-hydroxyl derivatives",5.52
same,pIC50,"Table 7 (first), alkaloid derivatives, read-out: IC50 SW-480",5.45
